This note sets out measurements from ChEMBL document CHEMBL1201862, “PubChem BioAssay data set” (2004).

Holding throughout (test): inhibition of tumour cell growth, NCI panel, 48 h
The test system of assay [1] is BT-549.
Assay [2] deals with CCRF-CEM.
Assay [3] deals with DU-145.
For assay [4], the system named is HCT-116.
Assay [5] relates to HCT-15.
The subject of assay [6] is HOP-62.
The subject of assay [7] is HOP-92.
For assay [8], the system named is HT-29.
The subject of assay [9] is MOLT-4.
In assay [10] the test system is NCI-H226.
The subject of assay [11] is NCI-H23.
Assay [12] deals with OVCAR-3.
For assay [13], the system named is OVCAR-4.
The subject of assay [14] is SF-268.
Assay [15] deals with SK-MEL-28.
Assay [16] concerns SK-MEL-2.
The subject of assay [17] is SK-MEL-5.
Assay [18] relates to SK-OV-3.
Assay [19] has as its system SNB-75.
The subject of assay [20] is T47D.

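96-well plates; 48 h exposure; 5 concentrations. Endpoints by linear interpolation between flanking doses. Not reached: highest tested concentration assigned. At the GI50, growth is halved.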 Active and inactive are the calls of the source. Rule as the data show it: active = GI50 up to about 1.1 µM and inactive = higher. Where only a bound is given, the exact number is not on record here.

Regarding `CC(C)(C)OC(=O)N1CCC2(CC1)C(=O)NCN2c1ccccc1`, the GI50 was > 100 µM (inactive) in assay [1]; > 100 µM (inactive) in assay [2]; > 100 µM (inactive) in [3]; > 100 µM (inactive) in assay [4]; more than 100 µM in [5]; > 100 µM (inactive) in assay [6]. For the same compound, the GI50 in assay [7], in assay [8], in [9], in assay [10], in assay [11] and in assay [12] was > 100 µM (inactive) in each case. Further, the GI50 in assay [13], in assay [14], in assay [15], in assay [16], in assay [17] and in assay [18] was > 100 µM (inactive) each time. The GI50 in assay [19] and in [20] was > 100 µM (inactive) in each case.
With `Cc1ccc(OCC2OC(n3cnc4c(Br)nc(Br)nc43)CC2Oc2ccc(C)cc2)cc1` (stereo not given), the GI50 in assay [1] was 18.6 µM (inactive); in [2], 2.7 µM (inactive); in assay [3], 2.38 µM (inactive); in assay [4] it was 1.89 µM (inactive); in assay [5], 2.34 µM; in [6] it was 3.61 µM (inactive). In addition, the GI50 in [7] is 2.41 µM (inactive); in assay [8], 2.9 µM (inactive); in assay [9], 2.1 µM (inactive); in assay [10], 14.6 µM (inactive); in assay [11] it was 4.55 µM (inactive); in assay [12], 5.6 µM (inactive). Besides, the GI50 was 3.12 µM (inactive) in [13]; 12.9 µM (inactive) in assay [14]; 4.51 µM (inactive) in assay [15]; 2.75 µM (inactive) in assay [16]; 6.31 µM (inactive) in assay [17]; 14.5 µM (inactive) in assay [18]. Besides, the GI50 in assay [19] is 3.09 µM (inactive); in [20] it was 10.8 µM (inactive).
As to `CN(C)/C=C/c1ccnc2c1C(=O)c1ccccc1C2=O`, the GI50 in assay [1] is 3.59 µM (inactive); in assay [2], 16.5 µM (inactive); in assay [3], 1.73 µM (inactive); in assay [4], 3.22 µM (inactive); in [5], 3.34 µM; in [6], 15.6 µM (inactive). Moreover, the GI50 in assay [7] was 31.8 µM (inactive); in assay [8], 14.8 µM (inactive); in assay [9] it was 22.5 µM (inactive); in [10], 10.5 µM (inactive); in assay [11], 2.48 µM (inactive); in assay [12] it was 3.74 µM (inactive). For the same compound, the GI50 in assay [13] was 23.4 µM (inactive); in assay [14], 13.6 µM (inactive); in assay [15], 2.48 µM (inactive); in [16] it was 3.65 µM (inactive); in assay [17] it was 1.28 µM (inactive); in assay [18] it was 44 µM (inactive). Moreover, the GI50 in assay [19] was 5.33 µM (inactive); in assay [20] it was > 48.4 µM (inactive).
